Assays:
Test in all cases: scanMAX KINOMEscan (Eurofins)
Type in all cases: binding
[1] = target: LCK (Homo sapiens, UniProt P06239); details: 1000 nM, read-out: Percent Control
Description: (§1) Supplement cb5c00097_si_002.xlsx, sheet "Table S6 (Eurofins Selectivity)" | column: Percent Control

[2] = target: ERN1 (Homo sapiens, UniProt O75460); details: read-out: Percent Control
Description: as §1

[3] = target: CSNK1A1 (Homo sapiens, UniProt P48729); details: 1000 nM, read-out: Percent Control
Description: as §1

[4] = target: LZK (Homo sapiens, UniProt O43283); details: 1000 nM, read-out: Percent Control
Description: as §1

[5] = target: HCK (Homo sapiens, UniProt P08631); details: 1000 nM, read-out: Percent Control
Description: as §1

[6] = target: LKB1 (Homo sapiens, UniProt Q15831); details: 1000 nM, read-out: Percent Control
Description: as §1

[7] = target: PRKCI (Homo sapiens, UniProt P41743); details: 1000 nM, read-out: Percent Control
Description: as §1

[8] = target: NLK (Homo sapiens, UniProt Q9UBE8); details: 1000 nM, read-out: Percent Control
Description: as §1

[9] = target: BRSK2 (Homo sapiens, UniProt Q8IWQ3); details: read-out: Percent Control
Description: as §1

[10] = target: BMPR2 (Homo sapiens, UniProt Q13873); details: read-out: Percent Control
Description: as §1

[11] = target: FYN (Homo sapiens, UniProt P06241); details: 1000 nM, read-out: Percent Control
Description: as §1

[12] = target: MAP3K1 (Homo sapiens, UniProt Q13233); details: compound concentration 100 nM; Entrez MAP3K1; read-out: Percent Control
Description: as §1

[13] = target: YSK4 (Homo sapiens, UniProt Q56UN5); details: compound concentration 100 nM; Entrez MAP3K19; read-out: Percent Control
Description: as §1

[14] = target: CSF1R (Homo sapiens, UniProt P07333); details: read-out: Percent Control
Description: as §1

[15] = target: STK16 (Homo sapiens, UniProt O75716); details: compound concentration 100 nM; Entrez STK16; read-out: Percent Control
Description: as §1

[16] = target: PIK3CB (Homo sapiens, UniProt P42338); details: 1000 nM, read-out: Percent Control
Description: as §1

[17] = target: ERK1 (Homo sapiens, UniProt P27361); details: read-out: Percent Control
Description: as §1

[18] = target: HUNK (Homo sapiens, UniProt P57058); details: read-out: Percent Control
Description: as §1

[19] = target: TSSK1B (Homo sapiens, UniProt Q9BXA7); details: 1000 nM, read-out: Percent Control
Description: as §1

[20] = target: BRAF (Homo sapiens, UniProt P15056); details: 1000 nM, read-out: Percent Control
Description: as §1

[21] = target: IKK-alpha (Homo sapiens, UniProt O15111); details: read-out: Percent Control
Description: as §1

[22] = target: FGFR1 (Homo sapiens, UniProt P11362); details: read-out: Percent Control
Description: as §1

[23] = target: STK33 (Homo sapiens, UniProt Q9BYT3); details: compound concentration 100 nM; Entrez STK33; read-out: Percent Control
Description: as §1

[24] = target: ERK3 (Homo sapiens, UniProt Q16659); details: read-out: Percent Control
Description: as §1

[25] = target: CAMK1D (Homo sapiens, UniProt Q8IU85); details: read-out: Percent Control
Description: as §1

[26] = target: TRKA (Homo sapiens, UniProt P04629); details: 1000 nM, read-out: Percent Control
Description: as §1

[27] = target: AKT2 (Homo sapiens, UniProt P31751); details: read-out: Percent Control
Description: as §1

[28] = target: TRKB (Homo sapiens, UniProt Q16620); details: 1000 nM, read-out: Percent Control
Description: as §1

[29] = target: RSK2(Kin.Dom.1-N-terminal) (Homo sapiens, UniProt P51812); details: compound concentration 100 nM; Entrez RPS6KA3; read-out: Percent Control
Description: as §1

[30] = target: PIP5K1C (Homo sapiens, UniProt O60331); details: compound concentration 100 nM; Entrez PIP5K1C; read-out: Percent Control
Description: as §1

[31] = target: MLK3 (Homo sapiens, UniProt Q16584); details: 1000 nM, read-out: Percent Control
Description: as §1

[32] = target: ALK (Homo sapiens, UniProt Q9UM73); details: read-out: Percent Control
Description: as §1

[33] = target: PDPK1 (Homo sapiens, UniProt O15530); details: 1000 nM, read-out: Percent Control
Description: as §1

[34] = target: ACVRL1 (Homo sapiens, UniProt P37023); details: 1000 nM, read-out: Percent Control
Description: as §1

[35] = target: HIPK2 (Homo sapiens, UniProt Q9H2X6); details: 1000 nM, read-out: Percent Control
Description: as §1

[36] = target: MAP3K4 (Homo sapiens, UniProt Q9Y6R4); details: 1000 nM, read-out: Percent Control
Description: as §1

Sequence of CAMK1D (Q8IU85 whole entry): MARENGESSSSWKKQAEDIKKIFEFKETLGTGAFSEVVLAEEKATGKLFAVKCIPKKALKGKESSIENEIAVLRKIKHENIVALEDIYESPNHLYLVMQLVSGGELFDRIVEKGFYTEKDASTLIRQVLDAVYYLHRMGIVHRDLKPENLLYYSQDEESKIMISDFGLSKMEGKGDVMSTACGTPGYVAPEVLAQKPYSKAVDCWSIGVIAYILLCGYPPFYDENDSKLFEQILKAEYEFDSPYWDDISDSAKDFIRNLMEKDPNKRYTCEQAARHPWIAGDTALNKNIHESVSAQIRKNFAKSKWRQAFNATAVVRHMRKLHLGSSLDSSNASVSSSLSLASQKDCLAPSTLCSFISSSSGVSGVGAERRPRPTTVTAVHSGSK
Sequence of IKK-alpha (O15111 whole entry): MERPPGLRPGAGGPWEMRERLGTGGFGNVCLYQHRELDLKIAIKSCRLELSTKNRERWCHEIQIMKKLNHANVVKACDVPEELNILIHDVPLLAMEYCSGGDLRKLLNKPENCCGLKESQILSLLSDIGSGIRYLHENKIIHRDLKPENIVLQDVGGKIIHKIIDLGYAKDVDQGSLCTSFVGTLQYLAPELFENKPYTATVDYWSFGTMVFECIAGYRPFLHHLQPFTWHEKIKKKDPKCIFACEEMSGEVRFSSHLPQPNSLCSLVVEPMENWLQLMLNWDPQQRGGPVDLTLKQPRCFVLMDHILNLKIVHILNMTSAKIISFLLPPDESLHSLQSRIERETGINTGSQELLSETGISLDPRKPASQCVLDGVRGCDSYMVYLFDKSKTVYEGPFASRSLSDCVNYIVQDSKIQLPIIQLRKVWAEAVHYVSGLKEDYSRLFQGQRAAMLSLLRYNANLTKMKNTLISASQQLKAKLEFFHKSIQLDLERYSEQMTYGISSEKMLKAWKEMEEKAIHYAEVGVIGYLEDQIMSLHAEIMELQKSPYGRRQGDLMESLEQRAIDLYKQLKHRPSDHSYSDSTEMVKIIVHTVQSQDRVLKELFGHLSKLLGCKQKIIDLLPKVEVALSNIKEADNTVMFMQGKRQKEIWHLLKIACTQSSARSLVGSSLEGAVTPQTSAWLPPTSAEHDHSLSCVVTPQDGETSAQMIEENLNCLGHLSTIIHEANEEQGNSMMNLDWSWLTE
Sequence of ERN1 (O75460 19-977): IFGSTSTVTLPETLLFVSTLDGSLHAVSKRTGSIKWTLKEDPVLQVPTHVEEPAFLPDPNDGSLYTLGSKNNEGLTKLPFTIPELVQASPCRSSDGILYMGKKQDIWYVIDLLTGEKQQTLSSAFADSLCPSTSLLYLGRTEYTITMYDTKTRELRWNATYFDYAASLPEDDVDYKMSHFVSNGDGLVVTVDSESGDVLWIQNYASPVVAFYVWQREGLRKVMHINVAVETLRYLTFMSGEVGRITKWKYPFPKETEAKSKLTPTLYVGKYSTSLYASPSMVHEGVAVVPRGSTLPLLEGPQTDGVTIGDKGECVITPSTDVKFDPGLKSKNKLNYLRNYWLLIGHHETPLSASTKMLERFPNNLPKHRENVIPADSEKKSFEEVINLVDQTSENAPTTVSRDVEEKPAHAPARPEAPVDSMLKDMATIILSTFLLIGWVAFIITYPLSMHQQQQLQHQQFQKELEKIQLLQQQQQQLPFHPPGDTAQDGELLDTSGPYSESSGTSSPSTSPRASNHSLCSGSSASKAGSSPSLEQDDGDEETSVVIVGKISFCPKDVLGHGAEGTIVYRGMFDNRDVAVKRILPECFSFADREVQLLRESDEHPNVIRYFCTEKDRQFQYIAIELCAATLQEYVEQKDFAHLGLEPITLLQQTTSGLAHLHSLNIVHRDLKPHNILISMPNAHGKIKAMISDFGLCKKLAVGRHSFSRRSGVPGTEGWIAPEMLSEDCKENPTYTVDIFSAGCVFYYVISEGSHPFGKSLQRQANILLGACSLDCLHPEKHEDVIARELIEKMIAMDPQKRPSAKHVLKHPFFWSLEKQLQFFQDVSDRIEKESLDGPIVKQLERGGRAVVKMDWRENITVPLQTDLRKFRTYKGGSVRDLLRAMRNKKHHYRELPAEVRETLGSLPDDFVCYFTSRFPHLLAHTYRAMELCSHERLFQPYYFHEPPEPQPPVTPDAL
Sequence of ERK1 (P27361 whole entry): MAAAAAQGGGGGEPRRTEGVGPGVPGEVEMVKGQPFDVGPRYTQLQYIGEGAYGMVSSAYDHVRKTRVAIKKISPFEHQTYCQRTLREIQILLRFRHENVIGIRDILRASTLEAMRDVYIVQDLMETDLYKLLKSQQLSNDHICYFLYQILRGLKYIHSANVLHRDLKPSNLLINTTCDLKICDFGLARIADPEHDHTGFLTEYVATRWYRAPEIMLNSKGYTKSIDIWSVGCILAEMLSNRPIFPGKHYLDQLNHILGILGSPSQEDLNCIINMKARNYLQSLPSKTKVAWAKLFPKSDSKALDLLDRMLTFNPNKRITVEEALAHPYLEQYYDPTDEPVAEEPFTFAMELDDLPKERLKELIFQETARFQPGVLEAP
Sequence of ERK3 (Q16659 whole entry): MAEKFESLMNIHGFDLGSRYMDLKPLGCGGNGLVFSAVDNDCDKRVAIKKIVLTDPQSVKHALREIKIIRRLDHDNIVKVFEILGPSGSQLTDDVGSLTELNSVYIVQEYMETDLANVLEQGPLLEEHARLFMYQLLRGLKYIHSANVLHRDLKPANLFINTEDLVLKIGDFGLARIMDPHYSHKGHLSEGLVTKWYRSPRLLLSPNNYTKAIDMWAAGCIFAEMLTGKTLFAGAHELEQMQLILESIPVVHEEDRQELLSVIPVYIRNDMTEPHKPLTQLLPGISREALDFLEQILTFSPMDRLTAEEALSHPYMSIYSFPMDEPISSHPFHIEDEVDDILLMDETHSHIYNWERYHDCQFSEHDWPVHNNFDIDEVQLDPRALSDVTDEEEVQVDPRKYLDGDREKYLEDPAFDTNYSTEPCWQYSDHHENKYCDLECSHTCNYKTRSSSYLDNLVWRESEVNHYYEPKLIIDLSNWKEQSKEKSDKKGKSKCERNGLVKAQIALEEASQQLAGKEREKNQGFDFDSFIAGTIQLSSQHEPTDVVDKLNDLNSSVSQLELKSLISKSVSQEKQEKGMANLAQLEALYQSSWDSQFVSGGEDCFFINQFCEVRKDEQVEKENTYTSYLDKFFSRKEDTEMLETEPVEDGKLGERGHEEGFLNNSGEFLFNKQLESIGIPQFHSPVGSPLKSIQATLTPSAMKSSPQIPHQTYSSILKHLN
Sequence of HUNK (P57058 whole entry): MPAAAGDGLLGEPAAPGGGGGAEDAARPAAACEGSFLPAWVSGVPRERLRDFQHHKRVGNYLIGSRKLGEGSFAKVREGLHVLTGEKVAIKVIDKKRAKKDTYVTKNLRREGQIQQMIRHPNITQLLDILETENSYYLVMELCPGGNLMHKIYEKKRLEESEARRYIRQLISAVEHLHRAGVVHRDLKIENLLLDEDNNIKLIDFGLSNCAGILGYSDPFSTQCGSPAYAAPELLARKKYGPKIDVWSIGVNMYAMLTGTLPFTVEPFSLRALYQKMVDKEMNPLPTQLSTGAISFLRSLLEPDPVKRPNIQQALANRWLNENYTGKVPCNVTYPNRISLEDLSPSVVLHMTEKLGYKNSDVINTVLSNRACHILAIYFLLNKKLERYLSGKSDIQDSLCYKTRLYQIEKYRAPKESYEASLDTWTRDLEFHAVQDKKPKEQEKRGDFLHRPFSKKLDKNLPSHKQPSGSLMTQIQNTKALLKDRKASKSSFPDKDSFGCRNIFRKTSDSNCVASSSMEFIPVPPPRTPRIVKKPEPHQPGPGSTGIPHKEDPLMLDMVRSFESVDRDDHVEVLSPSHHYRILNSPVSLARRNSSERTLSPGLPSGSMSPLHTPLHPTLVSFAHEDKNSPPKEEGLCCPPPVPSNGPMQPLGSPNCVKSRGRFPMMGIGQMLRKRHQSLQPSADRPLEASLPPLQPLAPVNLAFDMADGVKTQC
Sequence of AKT2 (P31751 whole entry): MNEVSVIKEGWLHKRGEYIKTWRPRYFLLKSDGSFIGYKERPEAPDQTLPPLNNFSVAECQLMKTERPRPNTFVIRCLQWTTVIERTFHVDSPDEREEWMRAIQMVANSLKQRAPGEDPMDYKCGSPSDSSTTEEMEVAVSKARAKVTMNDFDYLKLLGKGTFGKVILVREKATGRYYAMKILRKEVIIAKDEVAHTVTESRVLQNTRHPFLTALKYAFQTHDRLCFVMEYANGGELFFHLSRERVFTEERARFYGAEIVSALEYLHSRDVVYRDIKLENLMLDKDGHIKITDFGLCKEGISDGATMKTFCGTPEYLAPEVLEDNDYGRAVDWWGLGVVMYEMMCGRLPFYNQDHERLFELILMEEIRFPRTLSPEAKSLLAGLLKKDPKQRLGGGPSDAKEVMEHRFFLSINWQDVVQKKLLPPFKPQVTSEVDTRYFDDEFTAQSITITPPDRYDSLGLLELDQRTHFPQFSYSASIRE
Sequence of TSSK1B (Q9BXA7 whole entry): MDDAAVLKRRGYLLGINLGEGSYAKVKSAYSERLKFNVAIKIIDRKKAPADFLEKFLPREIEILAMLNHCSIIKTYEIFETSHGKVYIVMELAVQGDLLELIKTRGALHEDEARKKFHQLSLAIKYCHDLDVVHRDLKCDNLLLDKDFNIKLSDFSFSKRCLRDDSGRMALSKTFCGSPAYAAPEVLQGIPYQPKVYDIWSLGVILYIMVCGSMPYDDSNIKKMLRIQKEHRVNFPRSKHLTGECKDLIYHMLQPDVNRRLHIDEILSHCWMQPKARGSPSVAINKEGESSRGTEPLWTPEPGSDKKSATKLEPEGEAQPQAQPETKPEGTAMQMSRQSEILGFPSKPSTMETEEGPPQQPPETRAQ

SMILES: CN1C(=O)[C@@H](N2CCc3c(nn(Cc4ccccc4)c3C(N)=O)C2=O)COc2cc(Cl)ccc21 [Compound 10, (S)-2-benzyl-6-(8-chloro-5-methyl-4-oxo-2,3,4,5-tetrahydrobenzo[b][1,4]oxazepin-3-yl)-7-oxo-4,5,6,7-tetrahydro-2H-pyrazolo[3,4-c]pyridine-3-carboxamide]
- remaining binding at 1 µM [1]: 82%
- remaining binding at 1 µM ([2]; 1000 nM): 100%
- remaining binding at 0.1 µM ([2]; compound concentration 100 nM, Entrez ERN1): 100%
- remaining binding at 1 µM [3]: 83%
- remaining binding at 1 µM [4]: 67%
- remaining binding at 1 µM [5]: 92%
- remaining binding at 1 µM [6]: 88%
- remaining binding at 1 µM [7]: 80%
- remaining binding at 1 µM [8]: 98%
- remaining binding at 1 µM ([9]; 1000 nM): 100%
- remaining binding at 0.1 µM ([9]; compound concentration 100 nM, Entrez BRSK2): 85%
- remaining binding at 1 µM ([10]; 1000 nM): 100%
- remaining binding at 0.1 µM ([10]; compound concentration 100 nM, Entrez BMPR2): 90%
- remaining binding at 1 µM [11]: 77%
- remaining binding at 0.1 µM [12]: 100%
- remaining binding at 0.1 µM [13]: 88%
- remaining binding at 1 µM ([14]; 1000 nM): 100%
- remaining binding at 0.1 µM ([14]; compound concentration 100 nM, Entrez CSF1R): 83%
- remaining binding at 0.1 µM [15]: 80%
- remaining binding at 1 µM [16]: 88%
- remaining binding at 1 µM ([17]; 1000 nM): 100%
- remaining binding at 0.1 µM ([17]; compound concentration 100 nM, Entrez MAPK3): 93%
- remaining binding at 1 µM ([18]; 1000 nM): 100%
- remaining binding at 0.1 µM ([18]; compound concentration 100 nM, Entrez HUNK): 82%
- remaining binding at 1 µM [19]: 82%
- remaining binding at 1 µM [20]: 79%
- remaining binding at 1 µM ([21]; 1000 nM): 100%
- remaining binding at 0.1 µM ([21]; compound concentration 100 nM, Entrez CHUK): 93%
- remaining binding at 1 µM ([22]; 1000 nM): 100%
- remaining binding at 0.1 µM ([22]; compound concentration 100 nM, Entrez FGFR1): 88%
- remaining binding at 0.1 µM [23]: 80%
- remaining binding at 1 µM ([24]; 1000 nM): 100%
- remaining binding at 0.1 µM ([24]; compound concentration 100 nM, Entrez MAPK6): 87%
- remaining binding at 1 µM ([25]; 1000 nM): 100%
- remaining binding at 0.1 µM ([25]; compound concentration 100 nM, Entrez CAMK1D): 92%
- remaining binding at 1 µM [26]: 95%
- remaining binding at 1 µM ([27]; 1000 nM): 100%
- remaining binding at 0.1 µM ([27]; compound concentration 100 nM, Entrez AKT2): 90%
- remaining binding at 1 µM [28]: 76%
- remaining binding at 0.1 µM [29]: 100%
- remaining binding at 0.1 µM [30]: 100%
- remaining binding at 1 µM [31]: 92%
- remaining binding at 1 µM ([32]; 1000 nM): 100%
- remaining binding at 0.1 µM ([32]; compound concentration 100 nM, Entrez ALK): 84%
- remaining binding at 1 µM [33]: 91%
- remaining binding at 1 µM [34]: 91%
- remaining binding at 1 µM [35]: 81%
- remaining binding at 1 µM [36]: 92%

From article PMC12090182, “Repurposing of the RIPK1-Selective Benzo[1,4]oxazepin-4-one Scaffold for the Development of a Type III LIMK1/2 Inhibitor” (ACS Chemical Biology, 2025)
